This note sets out measurements from PMC2172902 (The Journal of Cell Biology, 2003).

The test system of the assay is DLD-1 cells. Kind of assay: chromosome alignment in cultures treated with proteosome inhibitor. It is filed as cell-based, human. The note with it: control cultures, 20 μM.

Peptide text beside a SMILES is read from it. * marks the point of attachment. Cbz = O=C(OCc1ccccc1)*

As for `CC(C)C[C@@H](C=O)NC(=O)[C@H](CC(C)C)NC(=O)[C@H](CC(C)C)NC(=O)OCc1ccccc1` [MG132] (Cbz-Leu-Leu-Leu-aldehyde), the proportion of metaphases was roughly 66% and the proportion of prometaphases is roughly 25%.
